From patent US12338255B2, “Bicyclic substituted sulfonylurea compounds as inhibitors of interleukin-1 activity” (Viva Star Biosciences (Suzhou) Co., Ltd., priority 2022, dated 2025)

Target: T1, NLRP3 (Homo sapiens, UniProt Q96P20)
T1 construct: Seed THP-1 cells (5.56*10^5 cells/mL) containing 1.0 ug/mL LPS; endogenous in cells; host or cells: THP-1 cells
Test: THP-1 LPS/nigericin IL1β release (pyroptosis assay), HTRF
Type: cell-based
Conditions: NLRP3 inhibitory activity; THP-1 cells, 1.0 ug/mL LPS, compound 3 hrs, nigericin 5 uM 1 hr, IL1β in supernatant
Procedure: The following method was used for compound screening. • 1. Seed THP-1 cells (5.56*10^5 cells/mL) containing 1.0 ug/mL LPS (SIGMA, L6529) in 45 uL RPMI 1640 medium (without FBS) into 384-well plate (Thermo Scientific, 164688). • 2. Add 5 uL compound (10 doses starting from 5 uM, 1:3 dilution) or vehicle (0.05% DMSO in medium) to the appropriate wells. • 3. Centrifuge the plates at 1000 rpm for 2 mins and incubate for 3 hrs at 37° C., 5% CO2. • 4. Add 5 uL nigericin (MEC, HY-100381) (final conc. 5 uM) to sample wells and positive control wells; add 5 uL RPMI 1640 medium to negative control wells. • 5. Centrifuge plates at 1000 rpm for 2 mins and incubate for 1 hr at 37° C., 5% CO2. • 6. At the end of the incubation period, centrifuge plates at 1000 rpm for 6 mins and transfer 8 uL supernatant into 384-well assay plates (PerkinElmer, 6008280). • 7. Add 8 ul RPMI 1640 medium into each well and spin down for 10 secs. • 8. Prepare the standard solutions and pre-mixed IL1β antibodie solution of Human IL1β kits (PerkinElmer, 62HIL1BPEH) according to the instruction. • 9. Add 16 uL standard solutions into clear wells of 384-well assay plates. • 10. Add 4 uL pre-mixed IL1β antibodie solution to all wells including sample wells, positive control wells, negative control wells and standard solutions wells. • 11. Seal the plates, spin down for 10 secs, incubation for overnight at RT and read on an HTRF® compatible reader (BMG LABTECH, PHERAstar FS). • 12. The concentrations of IL1β for treated wells are calculated by the standard curve. • 13. The IC50 data is fitted to a non-liner regression equation (log inhibitor vs. response—Variable slope four parameters)).

T1 sequence (Q96P20 whole entry): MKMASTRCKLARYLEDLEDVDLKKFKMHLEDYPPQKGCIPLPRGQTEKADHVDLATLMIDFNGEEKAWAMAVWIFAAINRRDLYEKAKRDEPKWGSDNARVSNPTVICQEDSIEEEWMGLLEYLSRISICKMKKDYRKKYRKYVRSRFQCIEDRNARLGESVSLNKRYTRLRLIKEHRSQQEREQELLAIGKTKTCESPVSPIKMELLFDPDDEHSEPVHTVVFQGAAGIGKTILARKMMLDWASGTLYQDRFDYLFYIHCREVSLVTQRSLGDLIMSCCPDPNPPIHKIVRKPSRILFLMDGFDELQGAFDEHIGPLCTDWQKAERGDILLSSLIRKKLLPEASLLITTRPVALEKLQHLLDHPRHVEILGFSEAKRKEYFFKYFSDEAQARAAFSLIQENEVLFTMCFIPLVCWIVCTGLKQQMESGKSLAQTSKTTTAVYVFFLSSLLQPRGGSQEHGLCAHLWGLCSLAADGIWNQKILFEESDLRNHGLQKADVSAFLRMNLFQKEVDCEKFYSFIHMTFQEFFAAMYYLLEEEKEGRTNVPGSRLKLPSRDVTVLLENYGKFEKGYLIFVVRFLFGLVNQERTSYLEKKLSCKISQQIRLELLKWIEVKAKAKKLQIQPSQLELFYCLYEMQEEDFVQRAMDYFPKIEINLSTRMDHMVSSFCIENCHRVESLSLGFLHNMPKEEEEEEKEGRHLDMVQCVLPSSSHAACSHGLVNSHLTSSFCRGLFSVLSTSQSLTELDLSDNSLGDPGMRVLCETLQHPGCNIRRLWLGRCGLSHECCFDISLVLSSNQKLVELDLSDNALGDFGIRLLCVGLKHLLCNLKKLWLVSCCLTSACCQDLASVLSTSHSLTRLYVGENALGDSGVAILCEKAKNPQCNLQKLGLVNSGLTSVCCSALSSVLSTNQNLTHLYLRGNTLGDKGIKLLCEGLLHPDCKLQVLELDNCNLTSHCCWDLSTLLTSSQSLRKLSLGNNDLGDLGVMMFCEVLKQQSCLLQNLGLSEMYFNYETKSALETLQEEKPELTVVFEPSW

Compound	IC50 [nM]
O=C(Nc1c(-c2ccn3nccc3c2)ccc2c1CCC2)NS(=O)(=O)c1cc2n(n1)CCO[C@@H]2C1CC1 (single isomer, unassigned) [Example 1]	≤ 100
O=C(Nc1c(-c2ccc3ccnn3c2)ccc2c1CCC2)NS(=O)(=O)c1cc2n(n1)CCO[C@@H]2C1CC1 (single isomer, unassigned) [Example 2]	100 to 500
O=C(Nc1c(-c2ccc3ncnn3c2)ccc2c1CCC2)NS(=O)(=O)c1cc2n(n1)CCO[C@@H]2C1CC1 (single isomer, unassigned) [Example 4]	100 to 500
O=C(Nc1c(-c2ccn3nccc3c2)ccc2c1CCC2)NS(=O)(=O)c1cc2n(n1)CCO[C@H]2C1CC1 (single isomer, unassigned) [Example 5]	≤ 100
O=C(Nc1c(-c2ccc3ccnn3c2)ccc2c1CCC2)NS(=O)(=O)c1cc2n(n1)CCO[C@H]2C1CC1 (single isomer, unassigned) [Example 6]	100 to 500
O=C(Nc1c(-c2ccn3nncc3c2)ccc2c1CCC2)NS(=O)(=O)c1cc2n(n1)CCO[C@H]2C1CC1 (single isomer, unassigned) [Example 7]	100 to 500
O=C(Nc1c(-c2ccc3ncnn3c2)ccc2c1CCC2)NS(=O)(=O)c1cc2n(n1)CCO[C@H]2C1CC1 (single isomer, unassigned) [Example 8]	100 to 500
Cc1cc2c(c(NC(=O)NS(=O)(=O)c3cc4n(n3)CCO[C@@H]4C3CC3)c1-c1ccn3nccc3c1)CCC2 (single isomer, unassigned) [Example 9]	≤ 100
O=C(Nc1c(-c2ccn3cncc3c2)ccc2c1CCC2)NS(=O)(=O)c1cc2n(n1)CCO[C@@H]2C1CC1 (single isomer, unassigned) [Example 10]	100 to 500
O=C(Nc1c(-c2ccn3ccnc3c2)ccc2c1CCC2)NS(=O)(=O)c1cc2n(n1)CCO[C@@H]2C1CC1 (single isomer, unassigned) [Example 11]	100 to 500
O=C(Nc1c(-c2ccn3ncnc3c2)ccc2c1CCC2)NS(=O)(=O)c1cc2n(n1)CCO[C@@H]2C1CC1 (single isomer, unassigned) [Example 13]	100 to 500
O=C(Nc1c(-c2ccc3nncn3c2)ccc2c1CCC2)NS(=O)(=O)c1cc2n(n1)CCO[C@@H]2C1CC1 (single isomer, unassigned) [Example 14]	500 to 1000
Cc1cc2c(c(NC(=O)NS(=O)(=O)c3cc4n(n3)CCO[C@@H]4C3CC3)c1-c1ccn3ccnc3c1)CCC2 (single isomer, unassigned) [Example 15]	≤ 100
Cc1cc2c(c(NC(=O)NS(=O)(=O)c3cc4n(n3)CCOC4(C)C)c1-c1ccnc3[nH]ccc13)CCC2 [Example 20, 4,4-dimethyl-N-((6-methyl-5-(1H-pyrrolo[2,3-b]pyridin-4-yl)-2,3-dihydro-1H-inden-4-yl)carbamoyl)-6,7-dihydro-4H-pyrazolo[5,1-c][1,4]oxazine-2-sulfonamide]	100 to 500
Cc1cc2c(c(NC(=O)NS(=O)(=O)c3cnn4c3COCC4)c1-c1ccnc3[nH]ccc13)CCC2 [Example 21, N-((6-methyl-5-(1H-pyrrolo[2,3-b]pyridin-4-yl)-2,3-dihydro-1H-inden-4-yl)carbamoyl)-6,7-dihydro-4H-pyrazolo[5,1-c][1,4]oxazine-3-sulfonamide]	100 to 500
Cc1cc2c(c(NC(=O)NS(=O)(=O)c3cc4n(n3)CCOC4(C)C)c1-c1ccn3nccc3c1)CCC2 [Example 22, 4,4-dimethyl-N-((6-methyl-5-(pyrazolo[1,5-a]pyridin-5-yl)-2,3-dihydro-1H-inden-4-yl)carbamoyl)-6,7-dihydro-4H-pyrazolo[5,1-c][1,4]oxazine-2-sulfonamide]	≤ 100
O=C(Nc1c(-c2ccn3nccc3c2)ccc2c1CCC2)NS(=O)(=O)c1cnc2c(c1)N(C1CC1)CCO2 [Example 24, 1-cyclopropyl-N-((5-(pyrazolo[1,5-a]pyridin-5-yl)-2,3-dihydro-1H-inden-4-yl)carbamoyl)-2,3-dihydro-1H-pyrido[2,3-b][1,4]oxazine-7-sulfonamide]	≤ 100
CO[C@@H]1COc2c(S(=O)(=O)NC(=O)Nc3c4c(cc(C)c3-c3ccn5nccc5c3)CCC4)cnn2C1 [Example 27, (S)-6-methoxy-N-((6-methyl-5-(pyrazolo[1,5-a]pyridin-5-yl)-2,3-dihydro-1H-inden-4-yl)carbamoyl)-6,7-dihydro-5H-pyrazolo[5,1-b][1,3]oxazine-3-sulfonamide]	≤ 100
CO[C@@H]1COc2c(S(=O)(=O)NC(=O)Nc3c4c(cc(C)c3-c3ccn5ccnc5c3)CCC4)cnn2C1 [Example 28, (S)-N-((5-(imidazo[1,2-a]pyridin-7-yl)-6-methyl-2,3-dihydro-1H-inden-4-yl)carbamoyl)-6-methoxy-6,7-dihydro-5H-pyrazolo[5,1-b][1,3]oxazine-3-sulfonamide]	≤ 100
CO[C@@H]1COc2c(S(=O)(=O)NC(=O)Nc3c4c(cc(C)c3-c3ccc5ccnn5c3)CCC4)cnn2C1 [Example 29, (S)-6-methoxy-N-((6-methyl-5-(pyrazolo[1,5-a]pyridin-6-yl)-2,3-dihydro-1H-inden-4-yl)carbamoyl)-6,7-dihydro-5H-pyrazolo[5,1-b][1,3]oxazine-3-sulfonamide]	≤ 100

Other lines, results leading:

IC50 [nM]	Compound
≤ 100	O=C(Nc1c(-c2ccn3nncc3c2)ccc2c1CCC2)NS(=O)(=O)c1cc2n(n1)CCO[C@@H]2C1CC1 (single isomer, unassigned) [Example 3]
100 to 500	O=C(Nc1c(-c2ccc3cncn3c2)ccc2c1CCC2)NS(=O)(=O)c1cc2n(n1)CCO[C@@H]2C1CC1 (single isomer, unassigned) [Example 12]
100 to 500	O=C(Nc1c(-c2ccn3nccc3c2)ccc2c1CCC2)NS(=O)(=O)c1cc2n(n1)C(C1CC1)COC2 (stereo not drawn) [Example 16, 7-cyclopropyl-N-((5-(pyrazolo[1,5-a]pyridin-5-yl)-2,3-dihydro-1H-inden-4-yl)carbamoyl)-6,7-dihydro-4H-pyrazolo[5,1-c][1,4]oxazine-2-sulfonamide]
≤ 100	Cc1cc2c(c(NC(=O)NS(=O)(=O)c3cc4n(n3)CCOC43CCC3)c1-c1ccn3nccc3c1)CCC2 [Example 17, N-((6-methyl-5-(pyrazolo[1,5-a]pyridin-5-yl)-2,3-dihydro-1H-inden-4-yl)carbamoyl)-6′,7′-dihydrospiro[cyclobutane-1,4′-pyrazolo[5,1-c][1,4]oxazine]-2′-sulfonamide]
≤ 100	Cc1cc2c(c(NC(=O)NS(=O)(=O)c3cn4c(n3)C(C3CC3)OCC4)c1-c1ccn3nccc3c1)CCC2 (stereo not drawn) [Example 18, 8-cyclopropyl-N-((6-methyl-5-(pyrazolo[1,5-a]pyridin-5-yl)-2,3-dihydro-1H-inden-4-yl)carbamoyl)-5,6-dihydro-8H-imidazo[2,1-c][1,4]oxazine-2-sulfonamide]
500 to 1000	Cc1cc2c(c(NC(=O)NS(=O)(=O)c3cn4c(n3)C(C3CC3)OCC4)c1-c1ccnc3[nH]ccc13)CCC2 (stereo not drawn) [Example 19, 8-cyclopropyl-N-((6-methyl-5-(1H-pyrrolo[2,3-b]pyridin-4-yl)-2,3-dihydro-1H-inden-4-yl)carbamoyl)-5,6-dihydro-8H-imidazo[2,1-c][1,4]oxazine-2-sulfonamide]
≤ 100	Cc1cc2c(c(NC(=O)NS(=O)(=O)c3cc4n(n3)CCOC4)c1-c1ccn3nccc3c1)CCC2 [Example 23, N-((6-methyl-5-(pyrazolo[1,5-a]pyridin-5-yl)-2,3-dihydro-1H-inden-4-yl)carbamoyl)-6,7-dihydro-4H-pyrazolo[5,1-c][1,4]oxazine-2-sulfonamide]
≤ 100	Cc1cc2c(c(NC(=O)NS(=O)(=O)c3cnc4c(c3)N(C3CC3)CCO4)c1-c1ccn3nccc3c1)CCC2 [Example 25, 1-cyclopropyl-N-((6-methyl-5-(pyrazolo[1,5-a]pyridin-5-yl)-2,3-dihydro-1H-inden-4-yl)carbamoyl)-2,3-dihydro-1H-pyrido[2,3-b][1,4]oxazine-7-sulfonamide]
100 to 500	Cc1cc2c(c(NC(=O)NS(=O)(=O)c3cnn4c3COCC4)c1-c1ccn3nccc3c1)CCC2 [Example 26, N-((6-methyl-5-(pyrazolo[1,5-a]pyridin-5-yl)-2,3-dihydro-1H-inden-4-yl)carbamoyl)-6,7-dihydro-4H-pyrazolo[5,1-c][1,4]oxazine-3-sulfonamide]
≤ 100	CO[C@@H]1COc2c(S(=O)(=O)NC(=O)Nc3c4c(cc(C)c3-c3ccc5nccn5c3)CCC4)cnn2C1 [Example 30, (S)-N-((5-(imidazo[1,2-a]pyridin-6-yl)-6-methyl-2,3-dihydro-1H-inden-4-yl)carbamoyl)-6-methoxy-6,7-dihydro-5H-pyrazolo[5,1-b][1,3]oxazine-3-sulfonamide]
